# System: S. cerevisiae tim23-1 mutant growth, luminescence
# Assay: growth inhibition of tim23-1 mutant yeast, dose response, counter-screen for tim10-1 yeast inhibitor project, luminescence, uHTS hits (AID 504544)
row,SMILES,IC50 [µM]
1,COc1ccc(C(=O)O/N=C(\N)c2ccccc2Cl)cc1OC,12.1
2,Cc1ccc(NC(=O)c2ccc(Cl)c(N3C(=O)C=CC3=O)c2)cc1,4.13
3,O=C(OCn1ncc(Br)c(Br)c1=O)c1ccc(F)cc1,1.78
4,Fc1c(F)c(C(F)(F)F)c(F)c(F)c1N/N=C\c1cccs1,7.37
5,CCOC(=O)c1c(CSc2ccc(C)cc2)n(C)c2cc(Br)c(O)c(CN(C)C)c12,19.9
6,CCCCc1ccc(NC(=S)Nc2ccc(Nc3ccc(OC)cc3)cc2)cc1,30.1
7,Cc1ccc(CNC(=O)c2ccc(Cn3nc(C)c(Cl)c3C)o2)cc1,17.4
8,CC(C)Nc1nnc(Sc2ccc(Cl)cc2[N+](=O)[O-])s1,2.66
9,COc1ccc(-c2cc(C3CC3)nc3sc(C#N)c(N)c23)cc1,6.84
10,CC(C)C(c1nnnn1C1CCCC1)N1CCCc2ccccc21 (stereo not drawn),13.7
11,O=C(NC(=S)NNC(=O)c1ccccc1[N+](=O)[O-])c1ccc(Br)cc1,12.5
12,COc1ccc(Cl)cc1NC(=S)NCCc1ccc(F)cc1,12.5
13,NNc1nc(-c2ccccc2)c2cc(Br)ccc2n1,21.8
14,O=C(NNC(=S)Nc1ccc(Cl)cc1)c1ccccc1OC(F)F,8.73
15,COc1ccc(-c2nncnn2)cc1,3.86
16,CCCOc1ccc(CN(CCC#N)C(=S)NC(=O)c2ccccc2)cc1,22.7
17,O=[N+]([O-])c1ccccc1N/N=C/c1c[nH]c2ccccc12,15.7
18,O=c1oc2ccccc2c(O)c1/C=C1\C=Nc2ccccc21,5.55
19,CNC(=O)c1nnsc1S(=O)(=O)c1ccc(Cl)cc1,11.5
20,Cn1c(NCCCO)nc2c(c1=O)C1(CCCCC1)Cc1ccccc1-2,8.71
21,C=CC(=O)Oc1ccc(N2Cc3ccccc3C2=O)cc1,3.33
22,Cc1ccc(OCC(=O)O/N=C(\N)Cc2ccc(Cl)cc2)cc1,61.9
23,Clc1ccccc1OCc1nnc(-c2ccccc2Br)o1,32.9
24,COc1ccc(-c2[nH]ncc2N=Nc2ccccc2)cc1,9.41
25,COc1ccc(C(=O)Nc2ccc(-n3nncc3C(C)(C)C)cc2)cc1,8.87
26,Fc1ccc(CNC(=S)Nc2cccc(C(F)(F)F)c2)cc1,12.3
27,CC1=C/C(=N\OS(=O)(=O)c2ccccc2)C=CC1=O,0.27
28,Cc1onc(-c2ccc3c(c2)OCO3)c1-c1ccc2[nH]ccc2c1,10.7

# — PubChem BioAssay AID504544 (Sanford-Burnham Center for Chemical Genomics, 2011)
